What was measured:
[1] = molecular target: DarmCSP2 (Dendroctonus armandi, UniProt A0A3S7PYZ0); assay: Fluorescence competitive binding assay (1-NPN displacement); conditions: for IC50: 2 μM DarmCSP2 and 2 μM 1-NPN titrated with ligand 2–16 μM, three independent measurements; for Ki: calculated from IC50: KD = [IC50]/(1+[1-NPN]/K1-NPN)
Protocol: A Hitachi F-4500 fluorescence spectrophotometer was used to measure emission fluorescence spectra, in a right-angle configuration with a 1 cm light-path quartz cuvette. The slit width was […] for both excitation and emission. DarmCSPs were dissolved to 2 μM in 50 mM Tris-HCl buffer (pH = 7.4), whereas fluorescent probe N-phenyl-1-naphthylamine (1-NPN) and all semiochemicals were dissolved in methanol with a 1 mM stock solution. […] Excitation of 1-NPN occurred at 337 nm, with the emission spectra recorded from 360 to 500 nm. Corresponding fluorescence intensity values were plotted against free 1-NPN concentration to determine DarmCSP binding constants. Bound 1-NPN concentrations were assessed based on fluorescence intensity, assuming DarmCSPs were 100% active and protein: ligand = 1:1 at saturation. The dissociation-constants curve was linearized with Scatchard plots in Prism 6.0 (GraphPad Software, CA, USA).
Ligand affinity was measured with competitive binding assays. Fourteen compounds were selected based on previous reports (Zhang et al., [2010]; Xie and Lv, [2012]; Chen et al., [2015]; Zhao et al., [2017a],[b]), including 10 host volatiles and four D. armandi pheromones (Table 2). A mixture of 2 μM DarmCSP and 2 μM 1-NPN was titrated with each ligand to final concentrations of 2–16 μM. Corresponding fluorescence intensities were recorded from three independent measurements. Dissociation constants of competitive ligands were calculated according to IC50 values, using the equation: KD = [IC50]/(1+[1-NPN]/K1−NPN), where IC50 is competitive-ligand concentration at half the initial fluorescence of 1-NPN, 1-NPN is the concentration of free 1-NPN, and K1−NPN is the dissociation constant of DarmCSP with 1-NPN.

[2] = tested on: D. armandi antennae; assay: Electroantennogram (EAG) of antennae after RNAi of DarmCSP2; design: species or system Dendroctonus armandi; conditions: 48 h post-injection; semiochemical 10 μg/μL in hexane; compared with non-injected and water-injected controls; P < 0.05
Protocol: Freshly and synchronously emerged adults were anesthetized on glass petri dishes placed for 30 min in an ice bath, before injection with 0.2 μL dsCSP2 into the hemocoel at the suture under the hindleg. Injections used Hamilton Microliter™ syringes (700 series, RN) with 32G sharp-point needles (Hamilton, Switzerland). Controls were either injected with 0.2 μL DEPC-treated water or not injected. Subjects were then transferred onto wet filter paper placed in clear glass petri dishes for continuous culture (at 20 ± 1°C, 50% humidity). Three males and three females were removed at different time intervals (12, 24, and 48 h) from each treatment group for storage at −80°C until qRT-PCR analysis. Three replicates were performed per treatment group (non-injected, water-injected, dsCSP2-injected). RNA isolation, cDNA synthesis, and qRT-PCR procedure followed methods described above (“RNA isolation and cDNA synthesis” and “Expression patterns of CSP genes across different life stages and tissues”).
Electroantennograms (EAG) were used to detect RNAi efficiency of dsCSP2 and determine DarmCSP2 function in binding semiochemicals. Methods were modified from a previous study (Zhang et al., [2010]). Subject beetles were chosen based on post-RNAi qRT-PCR and anesthetized in an ice bath. Antennae were carefully excised at their base with a scalpel and immediately connected between two electrode holders using Spectra 360 electrode gel.
Semiochemicals were selected based on the results of fluorescence binding assays and dissolved to 10 μg/μL in hexane. Hexane alone acted as a blank control and 1 μg/μL 1-hexanol was used as a standard to normalize all EAG recordings (Zhang et al., [2010]). Semiochemical solutions (20 μL) were loaded onto filter paper strips (5 × 30 mm) and then transferred into a Pasteur pipette. The pipette tip was then inserted into a small hole in the wall of a steel tube (15 mm diameter × 15 cm length). The tube was connected to an air stimulus controller (CS-05b Syntech, the Netherlands) for constant humidified airflow delivery at a rate of 40 mL/min. The open end of the tube was positioned 1 cm before an antenna affixed between two electrode holders.
To stimulate the antenna, semiochemical-containing air was introduced through the pipette into the main air flow at a rate of 20 mL/min for 0.2 s. Each stimulus was separated by at least a 1 min interval to ensure complete antenna recovery. Signals were recorded using an IDAC-2 unit plus amplifier and Syntech EAG 2000 (Syntech, Netherlands). The control and standard were tested before and after every semiochemical solution. Antennae from12 individuals (six males and six females) were tested, with three replicates per antenna. To calculate EAG values, mean responses of the solvent control before and after exposure were subtracted from mean sample responses, then converted to a percentage of the accompanying standard (Zhang et al., [2010]).

[3] = tested on: DarmCSP1; assay: Fluorescence binding assay of 1-NPN with DarmCSP1; design: species or system Dendroctonus armandi; conditions: DarmCSP1, 2 μM protein titrated with 1-NPN
Description: (§1) To better characterize DarmCSP function, three antennae-preferential genes (DarmCSP 1–3) were chosen for expression in bacteria. Signal peptides were removed to generate properly folded proteins. PCR products encoding mature proteins were amplified using gene-specific primers (Table S1), cloned into pGEM-T easy vectors (Promega, Madison, USA), then excised and cloned into the bacterial expression vector pET32a(+) (Novagen, Madison, WI), between BamHI and XhoI restriction sites. Successful cloning was verified through PCR and sequencing. Plasmids containing the correct insert were extracted and transformed into E. coli BL21 (DE3) competent cells. Positive clones were incubated at 37°C until absorbance = 0.6 at OD 600, and protein expression was induced with IPTG (isopropyl-β-D-1-thiogalactopyranoside) treatment (28°C for 6 h) to a final concentration of 0.5 mM. […]
(§2) Recombinant proteins were purified with N-termini His tagged from the supernatant using a Ni-NTA-Sefinose Column (Sangon, Shanghai, China), and placed in a buffer (25 mM Tris-HCl, 50 mM NaCl, and 2 mM CaCl2, pH 7.6) for dialysis. To avoid confounding effects in fluorescence binding assays, His-tags were excised using Recombinant Enterokinase with His-tag (rEK) (Sangong, Shanghai, China), and the resultant complex was cleared through a Ni-NTA-Sefinose Column. […]

[4] = tested on: DarmCSP3; assay: Fluorescence binding assay of 1-NPN with DarmCSP3; design: species or system Dendroctonus armandi; conditions: DarmCSP3, 2 μM protein titrated with 1-NPN
Description: as §1, §2

Chain of DarmCSP2 (A0A3S7PYZ0 entry or part of it): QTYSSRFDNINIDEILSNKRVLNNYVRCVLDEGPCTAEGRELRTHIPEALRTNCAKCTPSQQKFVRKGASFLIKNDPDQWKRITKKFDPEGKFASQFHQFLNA

Compound | IC50 [1] [µM] | Ki [1] [µM] | Effect of dsCSP2 injection on antennae EAG activity in response to the semiochemical [2] | Affinity to 1-NPN [3] | Affinity to 1-NPN [4]
(–)-β-Pinene | 5.93 ± 0.17 | 3.83 ± 0.11 | significantly reduced | – | –
C=C1[C@H]2CC[C@H](C2)C1(C)C [(+)-Camphene] | – | – | significantly reduced | – | –
(+)-α-Pinene | 3.6 ± 0.03 | 2.33 ± 0.02 | significantly reduced | – | –
CC1=CCC2C(C1)C2(C)C (single isomer, unassigned; (+)) [(+)-3-Carene] | 3.05 ± 0.71 | 1.97 ± 0.46 | significantly reduced | – | –
C=CC(=C)CCC=C(C)C [Myrcene] | – | – | significantly reduced | – | –
c1ccc(Nc2cccc3ccccc23)cc1 [1-NPN, N-phenyl-1-naphthylamine] | – | – | – | no obvious affinity | no obvious affinity
C=C(C)[C@H]1CC=C(C)CC1 [(R)-(+)-Limonene] | 6.36 ± 0.25 | 4.1 ± 0.16 | – | – | –
(+)-β-Pinene | 5.9 ± 1.31 | 3.8 ± 0.84 | significantly reduced | – | –
CC[C@@H]1O[C@]2(C)CCC[C@H]1O2 (racemic) [(±)-exo-Brevicomin] | 14.48 ± 0.11 | 9.34 ± 0.07 | – | – | –
CC1=C[C@H](O)[C@@H]2C[C@H]1C2(C)C (relative stereo) [(-)-trans-Verbenol] | 4.33 ± 0.1 | 2.8 ± 0.07 | – | – | –
CC1=CCC2CC1C2(C)C (stereo not drawn) [(–)-α-Pinene] | 2.53 ± 0.11 | 1.64 ± 0.08 | – | – | –
(S)-(-)-Limonene | 5.51 ± 0.42 | 3.41 ± 0.04 | – | – | –
CC1=CC[C@H](C(C)C)C=C1 [(R)-(-)-a-Phellandrene] | 8.77 ± 0.24 | 5.66 ± 0.16 | – | – | –
(±)-Frontalin | 26.2 ± 1.94 | 16.9 ± 1.26 | – | – | –
